Source: patent US20250313563A1, “GLYCOGEN SYNTHASE KINASE 3 INHIBITORS AND USES THEREOF” (The Broad Institute, Inc., priority 2022, published 2025)
Read-outs that look alike come from different tables or passages of the source.

Tests used:
[1] = target: GSK3α (GST-full length GSK3α) (Homo sapiens (Human), UniProt P49840); assay: GSK3α TR-FRET kinase assay; type: biochemical
Summary of the method: (§1)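 Readout: anti-pSer641 Tb antibody/streptavidin-d2 signal after 60 min, expressed as 665/615 ratio and fitted versus log concentration for IC50. Enzyme: 1 nM GST-GSK3 (α or β), compound-preincubated 30 min. Conditions: pH 7.5 Tris buffer with MgCl2, DTT, BSA; ATP at 4 or 2 μM, or 1 mM; 100 min.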

[2] = target: GSK3b (GST-full length GSK3b) (Homo sapiens (Human), UniProt P49841); assay: GSK3b TR-FRET kinase assay; type: biochemical
Sequence of GSK3b (GST-full length GSK3b) (P49841 whole entry): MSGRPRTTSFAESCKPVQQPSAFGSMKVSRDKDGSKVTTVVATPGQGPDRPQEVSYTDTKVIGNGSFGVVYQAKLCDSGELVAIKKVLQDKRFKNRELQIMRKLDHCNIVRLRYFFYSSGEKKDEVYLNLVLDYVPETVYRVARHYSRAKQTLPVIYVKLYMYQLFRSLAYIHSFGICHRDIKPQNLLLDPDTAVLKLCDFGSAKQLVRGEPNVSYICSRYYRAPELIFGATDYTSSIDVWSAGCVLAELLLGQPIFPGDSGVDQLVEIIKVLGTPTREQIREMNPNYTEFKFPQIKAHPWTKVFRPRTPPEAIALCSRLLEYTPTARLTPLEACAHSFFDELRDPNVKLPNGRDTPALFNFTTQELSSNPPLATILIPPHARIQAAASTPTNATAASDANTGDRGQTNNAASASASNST
Summary of the method: as §1

[3] = 1 nM GSK3α, 4 μM ATP, 30 minute preincubation, geometric mean, read-out: GSK3-A TR-FRET BIOCHEMICAL (TR-FRET), GMean, IC50
[4] = 1 nM GSK3b, 2 μM ATP, 30 minute preincubation, geometric mean, read-out: GSK3-B TR-FRET BIOCHEMICAL (TR-FRET), GMean, IC50
[5] = read-out: GSK3-A (TR-FRET 1 mM ATP), GMean, IC50, 1 mM ATP, geometric mean
[6] = read-out: GSK3-B (TR-FRET 1 mM ATP), GMean, IC50, 1 mM ATP, geometric mean
[7] = 1 nM GSK3α, 4 μM ATP, 30 minute preincubation, read-out: GSK3-A TR-FRET BIOCHEMICAL (TR-FRET), IC50
[8] = 1 nM GSK3b, 2 μM ATP, 30 minute preincubation, read-out: GSK3-B TR-FRET BIOCHEMICAL (TR-FRET), IC50

Sequence of GSK3α (GST-full length GSK3α) (P49840 whole entry): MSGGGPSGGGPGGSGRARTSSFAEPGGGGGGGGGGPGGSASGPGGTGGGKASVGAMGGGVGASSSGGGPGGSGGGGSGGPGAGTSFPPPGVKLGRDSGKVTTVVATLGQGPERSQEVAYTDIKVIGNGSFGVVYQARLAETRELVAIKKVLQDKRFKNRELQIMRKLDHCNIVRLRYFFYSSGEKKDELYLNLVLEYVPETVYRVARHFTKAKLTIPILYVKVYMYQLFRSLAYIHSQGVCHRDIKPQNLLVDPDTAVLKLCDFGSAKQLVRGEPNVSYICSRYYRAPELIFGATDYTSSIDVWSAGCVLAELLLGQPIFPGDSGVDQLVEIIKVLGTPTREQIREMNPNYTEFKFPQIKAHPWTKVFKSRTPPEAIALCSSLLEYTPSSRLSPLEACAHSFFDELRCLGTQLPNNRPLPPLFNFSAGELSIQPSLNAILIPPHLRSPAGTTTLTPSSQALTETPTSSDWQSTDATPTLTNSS

Q: What does the source list for `CC1(C)CC(=O)C2=C(C1)Nc1n[nH]cc1C21CN(c2ccccc2)C1` [Compound 948298]?
A: IC50 ([1]; 1 nM GSK3α, 4 μM ATP, 30 minute preincubation, Table 16, read-out: GSK3-A TR-FRET BIOCHEMICAL (TR-FRET)): ≤ 100 nM; IC50 ([2]; 1 nM GSK3b, 2 μM ATP, 30 minute preincubation, Table 16, read-out: GSK3-B TR-FRET BIOCHEMICAL (TR-FRET)): ≤ 100 nM

Q: How did the IC50 [1, 3] turn out when `CCC1(c2cccc(-c3ccnc(C)c3)c2)C2=C(CC(C)(C)NC2=O)Nc2n[nH]c(F)c21` (stereo not shown) [Compound 948299] was run?
A: The IC50 was no more than 100 nM.

Q: And the IC50 [2, 4]?
A: Its IC50 is 1000 to 5000 nM.

Q: With `CCC1(c2cccc(-c3cn(C)nc3C)c2)C2=C(CC(C)(C)NC2=O)Nc2n[nH]c(F)c21` (stereo not shown) [Compound 948301] as the compound, how does the IC50 [1, 3] read?
A: The IC50 was no more than 100 nM.

Q: What about the IC50 [2, 4] of the same compound?
A: The IC50 was no more than 100 nM.

Q: For `CCC1(c2cccc(-c3ccnc(C)c3)c2)C2=C(CC(C)(C)N(C)C2=O)Nc2n[nH]cc21` (stereo not shown) [Compound 948302], which IC50 [1, 3] is on record?
A: The IC50 was no more than 100 nM.

Q: And the IC50 [2, 4]?
A: The IC50 was 100 to 1000 nM.

Q: Which IC50 [1, 3] does the source give for `CCC1(c2cccc(S(=O)(=O)C3CC3)c2)C2=C(CC(C)(C)N(C)C2=O)Nc2n[nH]cc21` (stereo not shown) [Compound 948303] here?
A: The IC50 was no more than 100 nM.

Q: And the IC50 [2, 4]?
A: Its IC50 is no more than 100 nM.

Q: For `CCC1(c2cccc(-c3cn(C)nc3C)c2)C2=C(CC(C)(C)N(C)C2=O)Nc2n[nH]cc21` (stereo not shown) [Compound 948304], which IC50 [1, 3] is on record?
A: Its IC50 is no more than 100 nM.

Q: What about the IC50 [2, 4] of the same compound?
A: Its IC50 is no more than 100 nM.

Q: Which results are given for `CCC1(c2cccc(C(F)F)c2)C2=C(CC(C)(C)NC2=O)Nc2n[nH]c(C(F)(F)F)c21` (stereo not shown) [Compound 948305]?
A: IC50 [1, 3]: ≤ 100 nM; IC50 [2, 4]: ≤ 100 nM

Q: `CC[C@]1(c2cccc(-c3ccnc(C)c3F)c2)C2=C(CC(C)(C)NC2=O)Nc2n[nH]cc21` [Compound 948306] was tested. Which IC50 [1, 3] did it give?
A: The IC50 was no more than 100 nM.

Q: What about the IC50 [2, 4] of the same compound?
A: Its IC50 is 100 to 1000 nM.

Q: Which results are given for `CC[C@]1(c2cccc(-c3cn[nH]c3)c2)C2=C(CC(C)(C)NC2=O)Nc2n[nH]c(C(F)(F)F)c21` [Compound 948307]?
A: IC50 [1, 3]: ≤ 100 nM; IC50 [1, 5]: ≤ 100 nM; IC50 [2, 4]: ≤ 100 nM; IC50 [2, 6]: ≤ 100 nM

Q: How did the IC50 [1, 3] turn out when `CCC1(c2cccc(-c3ccnc4c3CCC4)c2)C2=C(CC(C)(C)NC2=O)Nc2n[nH]cc21` (stereo not shown) [Compound 948308] was run?
A: Its IC50 is greater than 5000 nM.

Q: What about the IC50 [2, 4] of the same compound?
A: Its IC50 is greater than 5000 nM.

Q: For `CC[C@@]1(c2cccc(-c3cn[nH]c3)c2)C2=C(CC(C)(C)NC2=O)Nc2n[nH]c(C(F)(F)F)c21` [Compound 948312], which IC50 [1, 3] is on record?
A: Its IC50 is no more than 100 nM.

Q: And the IC50 [2, 4]?
A: The IC50 was 100 to 1000 nM.

Q: For `CC[C@@]1(c2cccc(-c3ccnc4c3CCC4)c2)C2=C(CC(C)(C)NC2=O)Nc2n[nH]cc21` [Compound 948313], which IC50 [1, 3] is on record?
A: Its IC50 is no more than 100 nM.

Q: And the IC50 [1, 5]?
A: The IC50 was 100 to 1000 nM.

Q: And the IC50 [2, 4]?
A: Its IC50 is no more than 100 nM.

Q: What about the IC50 [2, 6] of the same compound?
A: Its IC50 is 1000 to 5000 nM.

Q: What does the source list for `CCC1(c2cccc(-c3cn(C)nc3C)c2)C2=C(CC(C)(C)NC2=O)Nc2n[nH]c(C(F)(F)F)c21` (stereo not shown) [Compound 948314]?
A: IC50 [1, 3]: ≤ 100 nM; IC50 [1, 5]: ≤ 100 nM; IC50 [2, 4]: ≤ 100 nM; IC50 [2, 6]: ≤ 100 nM

Q: `CC(=O)N1CC[C@]2(C1)C[C@]1(CO2)C2=C(CC(C)(C)CC2=O)Nc2n[nH]cc21` [Compound 948319] was tested. Which IC50 [1, 7] did it give?
A: Its IC50 is no more than 100 nM.

Q: And the IC50 [2, 8]?
A: Its IC50 is 100 to 1000 nM.

Q: Which results are given for `CC(=O)N1CC[C@@]2(C1)C[C@]1(CO2)C2=C(CC(C)(C)CC2=O)Nc2n[nH]cc21` [Compound 948320]?
A: IC50 [1, 7]: 100 to 1000 nM; IC50 [2, 8]: 1000 to 5000 nM

Q: For `CCc1cc(-c2cccc([C@]3(CC)C4=C(CC(C)(C)NC4=O)Nc4n[nH]cc43)c2)ccn1` [Compound 948360], which IC50 [1, 3] is on record?
A: The IC50 was 1000 to 5000 nM.

Q: And the IC50 [2, 4]?
A: The IC50 was greater than 5000 nM.

Q: `CC[C@@]1(c2cccc(-c3ccnc4cc(Cl)ccc34)c2)C2=C(CC(C)(C)NC2=O)Nc2n[nH]cc21` [Compound 948362] was tested. Which IC50 [1, 3] did it give?
A: Its IC50 is greater than 5000 nM.

Q: What about the IC50 [2, 4] of the same compound?
A: Its IC50 is greater than 5000 nM.

Q: How did the IC50 [1, 3] turn out when `CCC1(c2cccc(-c3ccnn3C)c2)C2=C(CC3(CCCOC3)NC2=O)Nc2n[nH]cc21` (stereo not shown) [Compound 948366] was run?
A: The IC50 was 1000 to 5000 nM.

Q: And the IC50 [2, 4]?
A: Its IC50 is greater than 5000 nM.

Q: What does the source list for `CCC1(c2cccc(-c3ccncc3C)c2)C2=C(CC3(CCOCC3)NC2=O)Nc2n[nH]cc21` (stereo not shown) [Compound 948367]?
A: IC50 [1, 3]: 100 to 1000 nM; IC50 [2, 4]: > 5000 nM

Q: Which results are given for `CC[C@@]1(c2cccc(-c3ccnc(C)c3Cl)c2)C2=C(CC(C)(C)NC2=O)Nc2n[nH]cc21` [Compound 948369]?
A: IC50 [1, 3]: > 5000 nM; IC50 [2, 4]: > 5000 nM

Q: `CC[C@]1(c2cccc(-c3c(F)cncc3Cl)c2)C2=C(CC(C)(C)NC2=O)Nc2n[nH]cc21` [Compound 948371] was tested. Which IC50 [1, 3] did it give?
A: The IC50 was no more than 100 nM.

Q: And the IC50 [1, 5]?
A: The IC50 was 100 to 1000 nM.

Q: And the IC50 [2, 4]?
A: Its IC50 is no more than 100 nM.

Q: And the IC50 [2, 6]?
A: The IC50 was 100 to 1000 nM.

Q: How did the IC50 [1, 3] turn out when `CCC1(c2cccc(C(F)(F)F)c2)C2=C(CCN(c3cncnc3)C2=O)Nc2n[nH]cc21` (stereo not shown) [Compound 948379] was run?
A: Its IC50 is no more than 100 nM.

Q: And the IC50 [1, 5]?
A: Its IC50 is 100 to 1000 nM.

Q: And the IC50 [2, 4]?
A: The IC50 was 100 to 1000 nM.

Q: What about the IC50 [2, 6] of the same compound?
A: Its IC50 is greater than 5000 nM.

Q: With `CCC1(c2cccc(C(F)(F)F)c2)C2=C(CCN(c3cncnc3)C2=O)Nc2n[nH]cc21` (stereo not shown) [Compound 948380] as the compound, how does the IC50 [1, 3] read?
A: The IC50 was 100 to 1000 nM.

Q: And the IC50 [2, 4]?
A: Its IC50 is greater than 5000 nM.

Q: `CCC1(c2cccc(-c3ccnc(C)c3)c2)C2=C(CC(C)(C)NC2=O)Nc2n[nH]c(C)c21` (stereo not shown) [Compound 948414] was tested. Which IC50 [1, 3] did it give?
A: The IC50 was greater than 5000 nM.

Q: What about the IC50 [2, 4] of the same compound?
A: Its IC50 is greater than 5000 nM.
